Measured values published in patent publication US20240216369A1, “THE USE OF A SPLICING MODULATOR FOR A TREATMENT SLOWING PROGRESSION OF HUNTINGTON'S DISEASE” (Novartis AG, priority 2019, published 2024).

Legend:
mHTT = assay: Mutant and total HTT multiplex HTRF assay in Q48 HTT human embryonic stem cell line: mHTT; format: cell-based; details: Q48 HTT hESC, 48 hours
Outline: (§1)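 Q48 HTT hESCs from HD donors were treated with compound for 48 h at 37 °C after 24 h adherence, then lysed. Lysates were read by multiplex HTRF with N-terminal donor, polyQ (MW1) and post-polyQ (MAB2166) antibodies for 4-6 h at RT. Donor/acceptor ratios give relative mHTT and tHTT; pIC50 reported.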

tHTT = assay: Mutant and total HTT multiplex HTRF assay in Q48 HTT human embryonic stem cell line: tHTT; format: cell-based; details: Q48 HTT hESC, 48 hours
Outline: as §1

Structure (SMILES)	Rating (based on mHTT potency) (mHTT)	mHTT pIC50 (mHTT)	tHTT pIC50 (tHTT)
COc1ccc2cc(-c3ccc(N(C)C4CC(C)(C)NC(C)(C)C4)nn3)c(O)cc2c1 [Compound 57, 7-methoxy-3-(6-(methyl(2,2,6,6-tetramethylpiperidin-4-yl)amino)pyridazin-3-yl)naphthalen-2-ol]	*** (a pIC50 value between 6.5 and 7.0 is indicated by three stars (***))	6.7085	6.791
COc1cc(-c2cn[nH]c2)cc(O)c1-c1ccc(N(C)C2CC(C)(C)NC(C)(C)C2)nn1 [Compound 58, 3-methoxy-2-(6-(methyl(2,2,6,6-tetramethylpiperidin-4-yl)amino)pyridazin-3-yl)-5-(1H-pyrazol-4-yl)phenol]	*** (a pIC50 value between 6.5 and 7.0 is indicated by three stars (***))	6.698	6.6555
Cc1nc(-c2ccc(-c3ccc(N(C)C4CC(C)(C)NC(C)(C)C4)nn3)c(O)c2)c[nH]1 [Compound 59, 2-(6-(methyl(2,2,6,6-tetramethylpiperidin-4-yl)amino)pyridazin-3-yl)-5-(2-methyl-1H-imidazol-4-yl)phenol]	*** (a pIC50 value between 6.5 and 7.0 is indicated by three stars (***))	6.678	6.5065
Cc1ncc2cc(-c3ccc(N(C)C4CC(C)(C)NC(C)(C)C4)nn3)c(O)cc2n1 [Compound 60, 2-methyl-6-(6-(methyl(2,2,6,6-tetramethylpiperidin-4-yl)amino)pyridazin-3-yl)quinazolin-7-ol]	*** (a pIC50 value between 6.5 and 7.0 is indicated by three stars (***))	6.6725	6.7
CN(c1ccc(-c2ccc(C3=CCNCC3)cc2O)nn1)C1CC(C)(C)NC(C)(C)C1 [Compound 61, 2-(6-(methyl(2,2,6,6-tetramethylpiperidin-4-yl)amino)pyridazin-3-yl)-5-(1,2,3,6-tetrahydropyridin-4-yl)phenol]	*** (a pIC50 value between 6.5 and 7.0 is indicated by three stars (***))	6.661	6.659
COc1cc(-c2sc(C)nc2C)ccc1-c1nnc(N(C)C2CC(C)(C)NC(C)(C)C2)s1 [Compound 62, 5-(4-(2,4-dimethylthiazol-5-yl)-2-methoxyphenyl)-N-methyl-N-(2,2,6,6-tetramethylpiperidin-4-yl)-1,3,4-thiadiazol-2-amine]	*** (a pIC50 value between 6.5 and 7.0 is indicated by three stars (***))	6.6555	6.6405
CCOc1cc(C)nc2cc(O)c(-c3ccc(N(C)C4CC(C)(C)NC(C)(C)C4)nn3)cc12 [Compound 63, 4-ethoxy-2-methyl-6-(6-(methyl(2,2,6,6-tetramethylpiperidin-4-yl)amino)pyridazin-3-yl)quinolin-7-ol]	*** (a pIC50 value between 6.5 and 7.0 is indicated by three stars (***))	6.63	6.534
CN(c1ccc(-c2cc3ccc(C#N)nc3cc2O)nn1)C1CC(C)(C)NC(C)(C)C1 [Compound 64, 7-hydroxy-6-(6-(methyl(2,2,6,6-tetramethylpiperidin-4-yl)amino)pyridazin-3-yl)quinoline-2-carbonitrile]	*** (a pIC50 value between 6.5 and 7.0 is indicated by three stars (***))	6.5945	6.5885
COc1cc(-c2cn[nH]c2)c(F)c(F)c1-c1nnc(N(C)C2CC(C)(C)NC(C)(C)C2)s1 [Compound 65, 5-(2,3-difluoro-6-methoxy-4-(1H-pyrazol-4-yl)phenyl)-N-methyl-N-(2,2,6,6-tetramethylpiperidin-4-yl)-1,3,4-thiadiazol-2-amine]	*** (a pIC50 value between 6.5 and 7.0 is indicated by three stars (***))	6.5865	6.5835
CN(c1ccc(-c2cc3c(cc2O)C(=O)CC3)nn1)C1CC(C)(C)NC(C)(C)C1 [Compound 66, 6-hydroxy-5-(6-(methyl(2,2,6,6-tetramethylpiperidin-4-yl)amino)pyridazin-3-yl)-2,3-dihydro-1H-inden-1-one]	*** (a pIC50 value between 6.5 and 7.0 is indicated by three stars (***))	6.5815	6.637
COc1ccc(-c2ccc(-c3ccc(N(C)C4CC(C)(C)NC(C)(C)C4)nn3)c(O)c2)cn1 [Compound 67, 5-(6-methoxypyridin-3-yl)-2-(6-(methyl(2,2,6,6-tetramethylpiperidin-4-yl)amino)pyridazin-3-yl)phenol]	*** (a pIC50 value between 6.5 and 7.0 is indicated by three stars (***))	6.547	6.452
CN(c1ccc(-c2cc3ccc(OCCC(C)(C)O)cc3cc2O)nn1)C1CC(C)(C)NC(C)(C)C1 [Compound 68, 7-(3-hydroxy-3-methylbutoxy)-3-(6-(methyl(2,2,6,6-tetramethylpiperidin-4-yl)amino)pyridazin-3-yl)naphthalen-2-ol]	*** (a pIC50 value between 6.5 and 7.0 is indicated by three stars (***))	6.529	6.488
CC1CC(Oc2ccc(-c3ccc(-c4cn[nH]c4)cc3O)nn2)CC(C)N1 (centres unmarked) [Compound 69, 2-(6-((2,6-dimethylpiperidin-4-yl)oxy)pyridazin-3-yl)-5-(1H-pyrazol-4-yl)phenol]	**** (a pIC50 value between 7.0 and 7.5 is indicated by four stars (****))	7.1525	7.089
C[C@@H]1CC(Oc2ccc(-c3ccc(-n4cccn4)cc3O)nn2)C[C@@H](C)N1 (stereo partly drawn) [Compound 70, 2-(6-(((2R,6R)-2,6-dimethylpiperidin-4-yl)oxy)pyridazin-3-yl)-5-(1H-pyrazol-1-yl)phenol]	* (a pIC50 value between 5 and 6 is indicated by a single star (*))	5.999	5.806
Oc1ccc2cc(-c3ccc(C4CCNCC4)nn3)c(O)cc2c1 [Compound 71, 3-(6-(piperidin-4-yl)pyridazin-3-yl)naphthalene-2,7-diol]	* (a pIC50 value between 5 and 6 is indicated by a single star (*))	5.996	5.997
CC1(C)CC(Oc2ccc(-c3ccc(-n4cccn4)cc3O)nn2)CCN1 (centres unmarked) [Compound 72, 2-(6-((2,2-dimethylpiperidin-4-yl)oxy)pyridazin-3-yl)-5-(1H-pyrazol-1-yl)phenol]	** (a pIC50 value between 6 and 6.5 is indicated by two stars (**))	6.21	6.13
Oc1cc(-c2cn[nH]c2)ccc1-c1ccc(N2C[C@H]3CNC[C@H]3C2)nn1 [Compound 74, 2-(6-((3aR,6aS)-hexahydropyrrolo[3,4-c]pyrrol-2(1H)-yl)pyridazin-3-yl)-5-(1H-pyrazol-4-yl)phenol]	** (a pIC50 value between 6 and 6.5 is indicated by two stars (**))	6.03	6.02
COc1cc(-c2cnn(C)c2)ccc1-c1nnc(N2CC3(CCNCC3)C2)s1 [Compound 75, 2-(2-methoxy-4-(1-methyl-1H-pyrazol-4-yl)phenyl)-5-(2,7-diazaspiro[3.5]nonan-2-yl)-1,3,4-thiadiazole]	** (a pIC50 value between 6 and 6.5 is indicated by two stars (**))	6.4375	6.4335
CN(c1nnc(-c2ccc(-c3cn[nH]c3)cc2F)s1)C1CC(C)(C)NC(C)(C)C1 [Compound 76, 5-(2-fluoro-4-(1H-pyrazol-4-yl)phenyl)-N-methyl-N-(2,2,6,6-tetramethylpiperidin-4-yl)-1,3,4-thiadiazol-2-amine]	** (a pIC50 value between 6 and 6.5 is indicated by two stars (**))	6.0645	6.075
CN(c1nnc(-c2cc3cc(C#N)ccc3s2)s1)C1CC(C)(C)NC(C)(C)C1 [Compound 77, 2-(5-(methyl(2,2,6,6-tetramethylpiperidin-4-yl)amino)-1,3,4-thiadiazol-2-yl)benzo[b]thiophene-5-carbonitrile]	** (a pIC50 value between 6 and 6.5 is indicated by two stars (**))	6.137	6.1615
CN(c1nnc(-c2cc3c(cc2O)C(=O)CC3)s1)C1CC(C)(C)NC(C)(C)C1 [Compound 78, 6-hydroxy-5-(5-(methyl(2,2,6,6-tetramethylpiperidin-4-yl)amino)-1,3,4-thiadiazol-2-yl)-2,3-dihydro-1H-inden-1-one]	** (a pIC50 value between 6 and 6.5 is indicated by two stars (**))	6.264	6.152
Cc1cc(-c2ccc(-c3nnc(N(C)C4CC(C)(C)NC(C)(C)C4)s3)c(F)c2)[nH]n1 [Compound 79, 5-(2-fluoro-4-(3-methyl-1H-pyrazol-5-yl)phenyl)-N-methyl-N-(2,2,6,6-tetramethylpiperidin-4-yl)-1,3,4-thiadiazol-2-amine]	* (a pIC50 value between 5 and 6 is indicated by a single star (*))	5.9315	6.01
COc1cc(-c2cn[nH]c2)cc(F)c1-c1nnc(N(C)C2CC(C)(C)NC(C)(C)C2)s1 [Compound 80, 5-(2-fluoro-6-methoxy-4-(1H-pyrazol-4-yl)phenyl)-N-methyl-N-(2,2,6,6-tetramethylpiperidin-4-yl)-1,3,4-thiadiazol-2-amine]	** (a pIC50 value between 6 and 6.5 is indicated by two stars (**))	6.2465	6.071
CN(c1ccc(-c2ccc3nccn3c2)nn1)C1CC(C)(C)NC(C)(C)C1 [Compound 81, 6-(imidazo[1,2-a]pyridin-6-yl)-N-methyl-N-(2,2,6,6-tetramethylpiperidin-4-yl)pyridazin-3-amine]	–	<5	<5
